Active and inactive are the calls of the source. No cut-off for these calls is given here.
Tests used:
[1] = target: Sucrase-isomaltase, intestinal (Rattus norvegicus) (UniProt P23739); conditions: Caco-2, 21 uM
Description: Inhibition of rat intestinal sucrase expressed in human Caco-2 cells at 21 uM

[2] = target: T1, Sucrase-isomaltase, intestinal (Homo sapiens, UniProt P14410); test: Inhibition of human intestinal sucrase in human Caco-2 cell membrane at 25 uM
Target sequence in this assay (P14410 2-1007 limits assumed): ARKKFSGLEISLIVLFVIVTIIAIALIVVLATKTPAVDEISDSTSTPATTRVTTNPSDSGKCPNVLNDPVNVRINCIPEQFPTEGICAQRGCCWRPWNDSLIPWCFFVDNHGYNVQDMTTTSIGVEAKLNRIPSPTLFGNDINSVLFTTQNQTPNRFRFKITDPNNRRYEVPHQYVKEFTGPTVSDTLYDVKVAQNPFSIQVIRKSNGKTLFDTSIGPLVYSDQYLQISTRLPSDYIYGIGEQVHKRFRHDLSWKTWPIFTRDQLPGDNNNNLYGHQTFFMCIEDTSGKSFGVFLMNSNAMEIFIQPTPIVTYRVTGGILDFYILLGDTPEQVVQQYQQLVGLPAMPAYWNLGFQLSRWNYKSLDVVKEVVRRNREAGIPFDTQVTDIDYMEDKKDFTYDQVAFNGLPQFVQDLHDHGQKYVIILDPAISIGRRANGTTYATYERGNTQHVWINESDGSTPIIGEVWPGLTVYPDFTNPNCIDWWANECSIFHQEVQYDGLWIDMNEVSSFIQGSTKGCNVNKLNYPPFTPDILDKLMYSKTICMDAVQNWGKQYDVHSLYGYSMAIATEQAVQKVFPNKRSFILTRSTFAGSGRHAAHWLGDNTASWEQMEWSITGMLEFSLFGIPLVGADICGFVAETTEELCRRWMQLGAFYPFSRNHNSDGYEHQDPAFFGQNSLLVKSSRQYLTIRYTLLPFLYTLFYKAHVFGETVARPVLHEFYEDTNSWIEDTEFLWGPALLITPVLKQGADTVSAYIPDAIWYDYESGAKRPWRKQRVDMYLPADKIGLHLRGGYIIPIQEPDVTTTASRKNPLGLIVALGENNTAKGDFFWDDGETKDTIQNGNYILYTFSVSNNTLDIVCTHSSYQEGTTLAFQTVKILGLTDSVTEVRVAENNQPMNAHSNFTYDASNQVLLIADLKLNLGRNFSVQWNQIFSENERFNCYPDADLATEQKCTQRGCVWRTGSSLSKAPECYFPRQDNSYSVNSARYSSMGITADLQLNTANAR
Target sequence in this assay (P14410 1008-1827 limits assumed): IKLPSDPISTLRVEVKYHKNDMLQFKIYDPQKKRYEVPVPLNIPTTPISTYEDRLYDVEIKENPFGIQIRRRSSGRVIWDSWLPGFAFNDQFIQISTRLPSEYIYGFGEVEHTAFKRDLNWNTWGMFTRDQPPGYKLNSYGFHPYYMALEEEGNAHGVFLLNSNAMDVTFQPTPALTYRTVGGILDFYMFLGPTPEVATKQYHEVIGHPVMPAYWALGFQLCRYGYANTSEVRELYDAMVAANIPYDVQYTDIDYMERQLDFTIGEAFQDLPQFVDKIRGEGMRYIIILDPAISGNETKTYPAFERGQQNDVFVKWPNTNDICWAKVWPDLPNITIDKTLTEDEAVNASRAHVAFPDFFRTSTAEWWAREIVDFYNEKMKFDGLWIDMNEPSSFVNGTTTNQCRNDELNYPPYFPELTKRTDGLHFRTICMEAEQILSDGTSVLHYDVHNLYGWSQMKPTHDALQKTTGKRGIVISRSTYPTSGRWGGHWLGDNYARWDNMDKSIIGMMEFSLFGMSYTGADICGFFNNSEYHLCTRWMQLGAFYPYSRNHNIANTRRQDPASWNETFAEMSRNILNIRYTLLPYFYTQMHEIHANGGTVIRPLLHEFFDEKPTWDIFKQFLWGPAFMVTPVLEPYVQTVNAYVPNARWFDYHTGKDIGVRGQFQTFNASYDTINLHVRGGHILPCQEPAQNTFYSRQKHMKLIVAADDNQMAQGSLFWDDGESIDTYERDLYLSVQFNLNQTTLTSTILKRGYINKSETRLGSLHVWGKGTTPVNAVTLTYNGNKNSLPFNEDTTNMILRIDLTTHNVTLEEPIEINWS

[3] = target: T1, Sucrase-isomaltase, intestinal; test: Inhibition of human intestinal sucrase
[4] = target: Sucrase-isomaltase, intestinal (Rattus norvegicus, UniProt P23739); test: Inhibition of rat intestinal sucrase
[5] = target: T1, Sucrase-isomaltase, intestinal; test: Inhibition of human intestinal sucrase in human Caco-2 cell membrane; type: cell-based
Target sequence in this assay (P14410 2-1007 limits assumed): as the sequence (P14410 2-1007 limits assumed) above
Target sequence in this assay (P14410 1008-1827 limits assumed): as the sequence (P14410 1008-1827 limits assumed) above

Sequence of Sucrase-isomaltase, intestinal (Rattus norvegicus, UniProt P23739) (P23739 1-1013 limits assumed): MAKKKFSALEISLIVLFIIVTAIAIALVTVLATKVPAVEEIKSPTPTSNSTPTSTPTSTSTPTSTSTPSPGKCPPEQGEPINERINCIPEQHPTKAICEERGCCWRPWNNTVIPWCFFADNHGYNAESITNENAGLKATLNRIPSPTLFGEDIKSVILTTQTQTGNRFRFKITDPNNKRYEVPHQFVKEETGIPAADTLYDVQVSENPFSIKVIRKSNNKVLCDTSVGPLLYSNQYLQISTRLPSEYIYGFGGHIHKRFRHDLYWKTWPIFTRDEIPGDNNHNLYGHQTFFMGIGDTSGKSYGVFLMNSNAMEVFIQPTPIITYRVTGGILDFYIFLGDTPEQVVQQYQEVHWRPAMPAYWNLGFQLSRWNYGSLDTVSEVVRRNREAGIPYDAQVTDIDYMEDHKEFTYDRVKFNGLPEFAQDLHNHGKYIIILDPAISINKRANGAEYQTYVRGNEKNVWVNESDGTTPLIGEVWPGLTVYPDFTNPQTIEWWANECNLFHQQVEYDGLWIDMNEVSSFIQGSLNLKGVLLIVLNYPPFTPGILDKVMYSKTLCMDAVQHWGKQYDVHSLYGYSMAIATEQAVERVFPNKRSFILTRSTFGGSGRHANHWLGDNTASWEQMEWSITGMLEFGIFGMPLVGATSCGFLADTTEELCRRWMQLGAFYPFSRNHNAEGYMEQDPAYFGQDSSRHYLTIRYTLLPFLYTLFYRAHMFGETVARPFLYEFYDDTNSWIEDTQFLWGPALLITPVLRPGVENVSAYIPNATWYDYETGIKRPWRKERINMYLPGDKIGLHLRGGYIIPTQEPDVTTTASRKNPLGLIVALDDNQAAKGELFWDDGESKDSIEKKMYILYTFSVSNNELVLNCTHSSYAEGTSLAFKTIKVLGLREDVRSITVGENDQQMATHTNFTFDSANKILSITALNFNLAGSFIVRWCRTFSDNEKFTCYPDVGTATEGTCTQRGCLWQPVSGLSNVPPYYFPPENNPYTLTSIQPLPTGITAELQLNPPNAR
Sequence of Sucrase-isomaltase, intestinal (Rattus norvegicus, UniProt P23739) (P23739 1014-1841 limits assumed): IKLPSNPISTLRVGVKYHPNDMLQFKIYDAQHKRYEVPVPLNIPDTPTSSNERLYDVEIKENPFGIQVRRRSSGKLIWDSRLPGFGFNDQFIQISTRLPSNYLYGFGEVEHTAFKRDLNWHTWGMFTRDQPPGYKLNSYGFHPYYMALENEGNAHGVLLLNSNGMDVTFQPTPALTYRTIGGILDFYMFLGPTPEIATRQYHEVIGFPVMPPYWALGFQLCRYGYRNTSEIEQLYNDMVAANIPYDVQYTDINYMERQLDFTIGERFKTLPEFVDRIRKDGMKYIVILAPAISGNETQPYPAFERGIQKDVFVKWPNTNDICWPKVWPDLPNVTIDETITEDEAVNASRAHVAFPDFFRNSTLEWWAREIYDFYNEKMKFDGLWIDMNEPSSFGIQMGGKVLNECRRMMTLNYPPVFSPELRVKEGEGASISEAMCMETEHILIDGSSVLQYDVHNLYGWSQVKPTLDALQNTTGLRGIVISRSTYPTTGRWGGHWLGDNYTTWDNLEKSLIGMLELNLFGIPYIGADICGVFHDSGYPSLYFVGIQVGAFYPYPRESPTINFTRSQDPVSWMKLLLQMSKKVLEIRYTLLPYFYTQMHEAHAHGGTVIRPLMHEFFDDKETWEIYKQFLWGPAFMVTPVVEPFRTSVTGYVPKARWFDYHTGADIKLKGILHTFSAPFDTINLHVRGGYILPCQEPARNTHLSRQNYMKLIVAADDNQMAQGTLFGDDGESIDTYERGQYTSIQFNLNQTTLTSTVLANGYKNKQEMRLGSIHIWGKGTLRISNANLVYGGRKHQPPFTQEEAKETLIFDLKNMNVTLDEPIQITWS
Sequence of Sucrase-isomaltase, intestinal (Rattus norvegicus) (P23739 1-1013 limits assumed): as the sequence (P23739 1-1013 limits assumed) above
Sequence of Sucrase-isomaltase, intestinal (Rattus norvegicus) (P23739 1014-1841 limits assumed): as the sequence (P23739 1014-1841 limits assumed) above

| inhibition [1] | inhibition [2] | Activity [3] | IC50 [4] | IC50 [5] | Structure (SMILES) |
| --- | --- | --- | --- | --- | --- |
| 100% | 95% | – | – | – | OC[C@H]1NC[C@H](O)[C@@H](O)[C@@H]1O |
| – | – | Active | 260 µM | 35 µM | O=c1cc(-c2ccccc2)oc2cc(O)c(O)c(O)c12 [BAICALEIN] |

From ChEMBL document CHEMBL1151315, “Baicalein, an alpha-glucosidase inhibitor from Scutellaria baicalensis” (J Nat Prod, 1998)
